According to patent US11911349B2, “Rapidly improving vascular conditions by administering vitamin K” (NATTOPHARMA AS, priority 2018, dated 2024):

How the values were obtained:
Format in all cases: in vivo
[1] = system: ApoE/LDLR−/− mice; test: Example 2: nitrite and nitrate concentration in plasma (HPLC, ENO-20); settings: two months
Experimental: Blood samples were collected from heart into test tubes containing additional anticoagulant and centrifuged at 1000 g for 10 min at 4° C. The samples were used for HPLC measurement of nitrate (NO3−) and nitrite (NO2−) concentrations in plasma by an ENO-20 NOx Analyzer.

[2] = system: ApoE/LDLR−/− mice; test: Example 2: histological assessment of plaque size, composition and vessel wall area in BCA; settings: two months
Description: For the determination of atherosclerotic plaque area and composition BCA was dissected, fixed in 4% buffered formalin and embedded in paraffin. 5 μm-thick serial sections of BCA were collected from proximal, middle and distal parts of artery. Originally developed staining with Unna's orcein combined with Martius, Scarlet and Blue trichrome (OMSB), was applied on every tenth section (50 μm interval between each section) for visualization of collagen, elastin, fibrin, red blood cells and vascular smooth muscle cells within atherosclerotic plaque. The areas of particular components of atherosclerotic plaque as well as artery lumen and wall were determined after Columbus-based software processing (FIG. 1B) using a previously developed algorithm [Gajda M, Jasztal A, Banasik T, Jasek-Gajda E, Chlopicki S. Combined orcein and martius scarlet blue (OMSB) staining for qualitative and quantitative analyses of atherosclerotic plaques in brachiocephalic arteries in apoE/LDLR−/− mice. Histochem Cell Biol 2017. doi:10.1007/s00418-017-1538-8.].

[3] = system: ApoE/LDLR−/− mice; test: Example 3: MRI assessment of FMD in femoral artery and Ach response in abdominal aorta, young mice; settings: for improvement in endothelial function compared with low dose (0.05 mg/kg) for 4 weeks: four weeks
Experimental: In a first part of the study, the effects of low doses (0.05 mg/kg b.w./day) as well as higher doses (0.5 mg/kg b.w./day and 5 mg/kg b.w./day) of vitamin K2 (MK-7, referred to in this example as simply “vitamin K2,” unless noted otherwise) on endothelial function in ApoE/LDLR−/−mice without well-established atherosclerotic plaque and with early phase of endothelial dysfunction were assessed.
Mice were randomly assigned to one of four experimental groups: control (untreated group) and three groups treated with vitamin K2 at a dose of 0.05, 0.5, and 5 mg/kg b.w./day, respectively. End-point measurements were performed at the age of 10-16 weeks.
Magnetic resonance imaging (MRI) experiments were performed using a 9.4T scanner (BioSpec 94/20 USR, Bruker, Germany) located in the Department of Magnetic Resonance Imaging, Institute of Nuclear Physics, Polish Academy of Sciences in Krakow. During the experiment, mice were anaesthetized using isoflurane (Aerrane, Baxter Sp. z o. o., Poland, 1.7 vol %) in an oxygen and air (1:2) mixture and imaged in the supine position. Activity of the heart, respiration, and body temperature (maintained at 37° C. using circulating warm water) were monitored using a Monitoring and Gating System (SA Inc., Stony Brook, N.Y., USA).
Endothelial function was assessed based on vascular responses to acetylcholine (Ach) administration in brachiocephalic artery (BCA), left common carotid artery (LCA) (FIGS. 6 A and B) and abdominal aorta (AA) (FIG. 6C) as well as to responses to increase in flow (flow-mediated dilatation, FMD) in femoral artery (FA) (FIG. 6D) as described in Bar A, Skorka T, Jasinski K, Sternak M, Bartel Ż, Tyrankiewicz U, et al. Retrospectively-gated MRI for in vivo assessment of endothelium-dependent vasodilatation and endothelial permeability in murine models of endothelial dysfunction. NMR Biomed 2016; 29(8):1088; Sternak M, Bar A, Adamski M G, Mohaissen T, Marczyk B, Kieronska A, et al. The Deletion of Endothelial Sodium Channel α (αENaC) Impairs Endothelium-Dependent Vasodilation and Endothelial Barrier Integrity in Endotoxemia in Vivo. Front Pharmacol 2018; 9:178. doi:10.3389/fphar.2018.00178; and Bar A, Olkowicz M, Tyrankiewicz U, Kus E, Jasinski K, Smolenski R T, et al. Functional and Biochemical Endothelial Profiling In Vivo in a Murine Model of Endothelial Dysfunction; Comparison of Effects of 1-Methylnicotinamide and Angiotensin-converting Enzyme Inhibitor. Front Pharmacol 2017; 8:183. doi:10.3389/fphar.2017.00183).
Vasomotor response was examined by comparing two time-resolved 3D images of the vessels prior to and 25 minutes after intraperitoneal Ach administration (Sigma-Aldrich, Poznan Poland: 50 μl, 16.6 mg/kg), as well as prior to and 5 minutes after vessel occlusion. Images were acquired using the cine IntraGate™ FLASH 3D sequence, reconstructed with the IntraGate 1.2.b.2 macro (Bruker). End-diastolic volumes of vessels were analyzed using ImageJ software 1.46r (NIH Bethesda, Md., USA) and scripts written in Matlab (MathWorks, Natick, Mass., USA). Imaging parameters included the following: repetition time (TR)—6.4 ms, echo time (TE)—1.4 ms, field of view (FOV)—30×30×5 mm3, matrix size—256×256×30, flip angle (FA)—30°, and number of accumulations (NA)—15, reconstructed to 7 cardiac frames. Total scan time was 10 minutes.

## CC(C)=CCC/C(C)=C/CC/C(C)=C/CC/C(C)=C/CC/C(C)=C/CC/C(C)=C/CC/C(C)=C/CC1=C(C)C(=O)c2ccccc2C1=O [MK-7, menaquinone-7]
[1]; 0.03 mg/kg b.w./day
  concentration of NO3− in plasma: did not change significantly
[1]; 10 mg/kg b.w./day
  concentration of NO3− in plasma: did not change significantly
[2]; high dose 10 mg/kg b.w./day
  content of collagen in plaque, treated vs untreated: lack of differences
  decrease in lipid core expressed as percent of plaque: about 17%
  decrease in vessel wall area (VWA) of BCA: about 5%
  effect on plaque size: did not result in a beneficial effect
  lumen area expressed as percent of IWA: did not change
  plaque area expressed as percent of IWA: did not change
[2]; low dose 0.03 mg/kg b.w./day
  content of collagen in plaque, treated vs untreated: lack of differences
  decrease in lipid core expressed as percent of plaque: about 17%
  decrease in vessel wall area (VWA) of BCA: about 5%
  effect on plaque size: did not result in a beneficial effect
  lumen area expressed as percent of IWA: did not change
  plaque area expressed as percent of IWA: did not change
[2]; lower dose 0.03 mg/kg b.w./day, not visible for entire vessel
  internal wall area (IWA): decreased only in the middle part of the vessel
[3]; 0.05 mg/kg b.w./day, eight weeks, untreated −16.22%, p=0.05
  Ach response in AA, volume changes: −0.65%
[3]; 0.05 mg/kg b.w./day, two weeks
  magnitude of endothelium-dependent response to acetylcholine in abdominal aorta (ACH-AA): lack of changes
  magnitude of vasodilatation in response to increase in flow in femoral artery (FMD-FA): lack of changes
[3]; 0.5 mg/kg b.w./day
  improvement in endothelial function compared with low dose (0.05 mg/kg) for 4 weeks: not superior
[3]; 5 mg/kg b.w./day
  improvement in endothelial function compared with low dose (0.05 mg/kg) for 4 weeks: not superior
[3]; 5 mg/kg b.w./day, two weeks, untreated −7.72%, p=0.1
  Ach response in AA, volume changes: 0.16%
